Laboratory results: patent US20250043353A1, “BIOMARKERS OF RESPONSE TO SELECTIVE INHIBITORS OF AURORA A KINASE” (Millennium Pharmaceuticals, Inc., priority 2015, published 2025)

Columns and labels:
[1] = system: advanced solid tumor types; settings: patients with relapsed/refractory BC, SCLC, NSCLC, HNSCC, GE adenocarcinoma; activity in all except NSCLC; cited from earlier work
[2] = system: advanced solid tumor types; assay: association of somatically mutated genes/pathways (whole exome sequencing) with response to alisertib in trial patients; type: in vivo, human; settings: for est: HR (hazard ratio) for progression free survival (PFS): adjusted by baseline, stratified by indication; for est: mean % best tumor size change between mutant and WT groups: all five tumor types, adjusted by tumor indication and tumor baseline size
Text: The best tumor size change and progression-free survival (PFS) of the patients were used as the efficacy response endpoints.
The genomic DNA was isolated from 47 patients with 2-4 slides of 5 micron thickness from archived tumor biopsies with Qiagen FFPE kit (Qiagen, Germany). Genomic DNA from blood samples were extracted utilizing blood DNA kit (Qiagen, Germany). Tumor-normal (blood) paired DNAs were sequenced by whole exome DNA sequencing employing Agilent SureSelect exome capture and Illumina Hi-Seq™ technologies.
The downstream analysis was designed to identify potential biomarkers predictive of drug response using the high-confidence mutations obtained from the middle-stream analysis. A linear regression model and Cox proportional hazard model were used for best tumor size change and PFS as endpoints, respectively. Tumor type was considered as a covariate in both models to adjust its confounding effect. In case of linear regression for best tumor size change as an endpoint, baseline tumor size was added as an additional covariate since baseline tumor size is […] correlated with the endpoint. In the following linear regression equation, y=β0+β1x+βc1c1+βc2c2+ε, y, x, c1, c2, and c represent the best tumor size change, a single gene mutation status, tumor type, baseline tumor size, and random error, respectively. When the gene harbors high-confidence mutation(s), x becomes 1; otherwise, it is 0. The 1st covariate c1 was converted into five binary variables to represent the five different tumor types and the 2nd covariate c2 is a continuous variable. As a result, the coefficient fi indicates the contribution of the mutated gene to sensitivity or resistance to alisertib treatment after adjusting the potential confounding effects of the covariates. A p-value was computed for testing the null hypothesis β1=0. Since multiple genes were tested using these models and the p-values were corrected for multiple hypothesis testing using false discovery rate (FDR).
A similar approach was used for the pathway association analysis. A pathway can be defined as a group of genes that are known to be interacting together for a common biological function. […] Two types of statistical tests were selected in order to test the degree of association of mutations on the pathway level and alisertib treatment outcome, particularly best tumor size change. […] A linear regression model was built using this binary variable as an independent variable and tumor type and baseline tumor size were used as covariates, similar to the equation used for gene-level association. Secondly, sequence kernel association tests (SKAT) were run to account for cases where individual mutated genes in a pathway contribute differently to drug sensitivity or resistance. […] As the two methods, linear regression and SKAT, provide different angles in terms of association between pathways and alisertib response, the smaller p-value (the best of the two tests, BOT from here on) was selected as a representative p-value for each pathway. The p-values of the pathways were subjected to multiplicity adjustments in order to control the type I error of the statistical tests.
The Cox proportional hazard models were used to see potential association between mutated genes/pathways and progression-free survival (PFS).
For single gene-level association, the Benjamini & Hochberg (BH) method was used to compute FDR (also known as q-value). For pathway-level association, as multiple statistical association analyses (linear regression, SKAT and BOT) were conducted for each pathway, and pathways are often correlated through commonly present genes, multiplicity adjustment becomes more complicated. To address these challenges, a re-sampling-based multiplicity adjustment was implemented. The null distributions of p-values from pathway association tests were simulated using parametric bootstrapping. […]

COc1cc(Nc2ncc3c(n2)-c2ccc(Cl)cc2C(c2c(F)cccc2OC)=NC3)ccc1C(=O)O [alisertib, 4-{[9-chloro-7-(2-fluoro-6-methoxyphenyl)-5H-pyrimido[5,4-d][2]benzazepin-2-yl]amino}-2-methoxybenzoic acid]
single agent antitumor activity [1]: clinically meaningful antitumor activity in four of the five solid tumor types
est: HR (hazard ratio) for progression free survival (PFS) ([2]; EP300 mutated vs WT): 0.271
est: mean % best tumor size change between mutant and WT groups ([2]; FAT1 mutated): −39.70%
est: mean % best tumor size change between mutant and WT groups ([2]; FBXW7 mutated): 41.96%
est: HR (hazard ratio) for progression free survival (PFS) ([2]; MLL3 mutated vs WT): 0.129
est: mean % best tumor size change between mutant and WT groups ([2]; MLL3 mutated): −28.84%
response (best tumor size change) of patients with mutated pathway versus wild type ([2]; patients with mutated WNT or Hippo signaling pathways vs WT): respond more favorably
